Several values for one entry are separate records, joined by “and”; a condition that tells them apart may be missing. Equal entries are not always repeated. Toxic doses and inconclusive results are not listed. The calls were made as follows: active = survival T/C of 150% or more; inactive = T/C below 125% in these data.
Test system: P388 leukemia ip, CD2F1 mice, survival T/C
Assay: NCI In Vivo Anticancer Drug Screen. Data for tumor model P388 Leukemia (intraperitoneal) in CD2F1 (CDF1) mice
Conditions: endpoint: median survival time, higher = longer survival
In short: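 Mice carrying the transplanted tumor received test compound or vehicle. Survival was recorded in each group, and the value is the treated-group measurement divided by that of the vehicle-treated control group.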

[1] = dose: 60.0 mg/kg/injection, schedule: Q01DX005 (ip), vehicle: saline with Tween-80
[2] = dose: 120.0 mg/kg/injection, schedule: Q01DX005 (ip), vehicle: saline with Tween-80
[3] = dose: 240.0 mg/kg/injection, schedule: Q01DX005 (ip), vehicle: saline with Tween-80
[4] = dose: 100.0 mg/kg/injection, schedule: Q01DX009 (ip), vehicle: saline with Tween-80
[5] = dose: 100.0 mg/kg/injection, schedule: Q01DX009 (ip), vehicle: saline
[6] = dose: 200.0 mg/kg/injection, schedule: Q01DX009 (ip), vehicle: saline
[7] = dose: 100.0 mg/kg/injection, schedule: Q01DX001 (ip), vehicle: saline with Tween-80

Measured: T/C

Cc1nc(N=C(N)N)nc2ccc3ccccc3c12
inactive: dose: 3.13 mg/kg/injection, schedule: Q01DX009 (ip), vehicle: Klucel (hydroxypropylcellulose) (HPC) 95 % of control | dose: 6.25 mg/kg/injection, schedule: Q01DX009 (ip), vehicle: Klucel (hydroxypropylcellulose) (HPC) 104 % of control | dose: 12.5 mg/kg/injection, schedule: Q01DX009 (ip), vehicle: Klucel (hydroxypropylcellulose) (HPC) 93 % of control

COc1ccc2c(NCCNc3c4ccccc4nc4cc(OC)ccc34)c3ccccc3nc2c1
inactive: dose: 0.62 mg/kg/injection, schedule: Q01DX009 (ip), vehicle: other 90 % of control | dose: 1.25 mg/kg/injection, schedule: Q01DX009 (ip), vehicle: other 90 % of control | dose: 2.5 mg/kg/injection, schedule: Q01DX009 (ip), vehicle: other 96 % of control | dose: 5.0 mg/kg/injection, schedule: Q01DX009 (ip), vehicle: other 100 % of control | dose: 10.0 mg/kg/injection, schedule: Q01DX009 (ip), vehicle: other 106 % of control | dose: 20.0 mg/kg/injection, schedule: Q01DX009 (ip), vehicle: other 96 % of control

O=C(NN=c1c(=O)c2ccccc2c1=O)c1ccncc1
inactive: [1] 112 % of control | [2] 119 % of control | [3] 119 % of control

OC(CI)C(O)C(O)C(O)CI (centres undefined)
inactive: [4] 105 % of control and 115 % of control | [5] 98 % of control | dose: 100.0 mg/kg/injection, schedule: Q04DX003 (ip), vehicle: saline with Tween-80 100 % of control and 104 % of control | dose: 132.0 mg/kg/injection, schedule: Q01DX009 (ip), vehicle: saline with Tween-80 122 % of control | [6] 91 % of control | dose: 200.0 mg/kg/injection, schedule: Q04DX003 (ip), vehicle: saline with Tween-80 104 % of control and 113 % of control | dose: 400.0 mg/kg/injection, schedule: Q01DX009 (ip), vehicle: saline 105 % of control | dose: 400.0 mg/kg/injection, schedule: Q04DX003 (ip), vehicle: saline with Tween-80 100 % of control and 113 % of control | dose: 500.0 mg/kg/injection, schedule: Q01DX009 (ip), vehicle: saline 96 % of control

O=S1(=O)C(c2ccccc2)=C(O)c2cc3ccccc3nc21
inactive: dose: 50.0 mg/kg/injection, schedule: Q01DX009 (ip), vehicle: saline with Tween-80 107 % of control | [4] 112 % of control | dose: 200.0 mg/kg/injection, schedule: Q01DX009 (ip), vehicle: saline with Tween-80 107 % of control

CN(C)CCNC(=O)c1noc2c1CSc1ccccc1-2
inactive: [7] 101 % of control | dose: 200.0 mg/kg/injection, schedule: Q01DX001 (ip), vehicle: saline with Tween-80 101 % of control | dose: 400.0 mg/kg/injection, schedule: Q01DX001 (ip), vehicle: saline with Tween-80 100 % of control

CSC1=NSC(c2ccccc2)=C(c2ccccc2)S1
inactive: [1] 111 % of control | [2] 122 % of control | [3] 119 % of control

CCCCC(CC)C(=O)[O][Sn]([CH2]CCC)([CH2]CCC)[O]C(=O)C(CC)CCCC (centres undefined)
inactive: dose: 1.5 mg/kg/injection, schedule: Q01DX009 (ip), vehicle: saline sonified 104 % of control | dose: 3.0 mg/kg/injection, schedule: Q01DX009 (ip), vehicle: saline sonified 95 % of control | dose: 6.0 mg/kg/injection, schedule: Q01DX009 (ip), vehicle: saline sonified 118 % of control

CN1C(=O)c2ccccc2C2(C1=O)C(C#N)=C(N)Oc1c2c2ccccc2c(=O)n1C (centres undefined)
inactive: dose: 60.0 mg/kg/injection, schedule: Q01DX005 (ip), vehicle: Klucel (hydroxypropylcellulose) (HPC) 99 % of control | dose: 120.0 mg/kg/injection, schedule: Q01DX005 (ip), vehicle: Klucel (hydroxypropylcellulose) (HPC) 95 % of control | dose: 240.0 mg/kg/injection, schedule: Q01DX005 (ip), vehicle: Klucel (hydroxypropylcellulose) (HPC) 88 % of control

NC1[N-]C(C2CCCC[N-]2)CC2C(Cl)CCCC12.O=[N+]([O-])O.O=[N+]([O-])O.[Cu+2] (centres undefined)
inactive: dose: 6.25 mg/kg/injection, schedule: Q04DX002 (ip), vehicle: suspension in saline 101 % of control | dose: 12.5 mg/kg/injection, schedule: Q04DX002 (ip), vehicle: suspension in saline 111 % of control

CC(NCCO)C(O)c1ccccc1 (centres undefined)
inactive: [5] 90 % of control | [6] 98 % of control

C=C1C(=O)OC2/C=C(\C)C3OC3/C=C(/C(=O)OC)C(OC(C)=O)C(OC(=O)C(C)(O)C(C)OC(C)=O)C12 (centres undefined)
inactive: dose: 1.5 mg/kg/injection, schedule: Q01DX009 (ip), vehicle: Klucel (hydroxypropylcellulose) (HPC) 114 % of control | dose: 12.0 mg/kg/injection, schedule: Q01DX009 (ip), vehicle: Klucel (hydroxypropylcellulose) (HPC) 106 % of control

COc1ccc(C(Nc2ccc([N+](=O)[O-])cc2)P(=O)(c2ccccc2)c2ccccc2)cc1 (centres undefined)
inactive: [1] 99 % of control | [2] 92 % of control | [3] 88 % of control

CCCCCCCC(=O)Nc1nnc(SCCCCCCCCCCSc2nnc(NC(=O)CCCCCCC)s2)s1
inactive: dose: 50.0 mg/kg/injection, schedule: Q01DX005 (ip), vehicle: Klucel + Tween-80 90 % of control | dose: 100.0 mg/kg/injection, schedule: Q01DX005 (ip), vehicle: Klucel + Tween-80 87 % of control | dose: 200.0 mg/kg/injection, schedule: Q01DX005 (ip), vehicle: Klucel + Tween-80 90 % of control

CNCc1c(C)[nH]c2ccc(N(C)C)cc2c1=O
inactive: [1] 101 % of control | [2] 104 % of control

c1ccc2c(C3CCCN4CCCCC34)c[nH]c2c1 (centres undefined)
inactive: dose: 12.5 mg/kg/injection, schedule: Q04DX002 (ip), vehicle: saline with Tween-80 105 % of control | dose: 25.0 mg/kg/injection, schedule: Q04DX002 (ip), vehicle: saline with Tween-80 102 % of control | dose: 50.0 mg/kg/injection, schedule: Q04DX002 (ip), vehicle: saline with Tween-80 100 % of control

COC(=O)c1c(-c2ccccc2)c(-c2ccccc2)[nH]c(=O)c1C#N
inactive: [1] 108 % of control | [2] 100 % of control | [3] 91 % of control

CCOC(CN)(OCC)c1ccncc1
inactive: dose: 50.0 mg/kg/injection, schedule: Q01DX005 (ip), vehicle: saline 102 % of control | dose: 100.0 mg/kg/injection, schedule: Q01DX005 (ip), vehicle: saline 101 % of control | dose: 200.0 mg/kg/injection, schedule: Q01DX005 (ip), vehicle: saline 101 % of control

COC(=O)C12CN(C)CC(C(=O)OC)(C1=O)C(c1ccccc1)OC2c1ccccc1 (centres undefined)
inactive: [1] 107 % of control and 98 % of control | [2] 99 % of control | [3] 98 % of control and 90 % of control

CN(C)NC(=O)[S-].CN(C)NC(=O)[S-].[Ni]
inactive: dose: 12.5 mg/kg/injection, schedule: Q01DX001 (ip), vehicle: saline with Tween-80 103 % of control | dose: 25.0 mg/kg/injection, schedule: Q01DX001 (ip), vehicle: saline with Tween-80 111 % of control | dose: 50.0 mg/kg/injection, schedule: Q01DX001 (ip), vehicle: saline with Tween-80 106 % of control and 96 % of control | [7] 109 % of control

CCCCN(CCCC)C(=N)c1ccccc1Cl
inactive: dose: 6.25 mg/kg/injection, schedule: Q01DX005 (ip), vehicle: Klucel (hydroxypropylcellulose) (HPC) 103 % of control | dose: 12.5 mg/kg/injection, schedule: Q01DX005 (ip), vehicle: Klucel (hydroxypropylcellulose) (HPC) 99 % of control

C=C(C)C(=O)O[C@@H]1C/C(C)=C\[C@H](OC(C)=O)C[C@](C)(O)/C=C2/OC(=O)C(COC(C)=O)=C21
inactive: dose: 5.5 mg/kg/injection, schedule: Q01DX005 (ip), vehicle: Klucel (hydroxypropylcellulose) (HPC) 105 % of control and 110 % of control | dose: 11.0 mg/kg/injection, schedule: Q01DX005 (ip), vehicle: Klucel (hydroxypropylcellulose) (HPC) 103 % of control and 109 % of control | dose: 22.0 mg/kg/injection, schedule: Q01DX005 (ip), vehicle: Klucel (hydroxypropylcellulose) (HPC) 122 % of control

COC(=O)c1cc(O)c(O)c(O)c1
inactive: dose: 50.0 mg/kg/injection, schedule: Q01DX005 (ip), vehicle: saline with Tween-80 105 % of control | dose: 100.0 mg/kg/injection, schedule: Q01DX005 (ip), vehicle: saline with Tween-80 108 % of control | dose: 200.0 mg/kg/injection, schedule: Q01DX005 (ip), vehicle: saline with Tween-80 119 % of control
